In ChEMBL document CHEMBL1128408, “Further evidence supporting the importance of and the restrictions on a carbon-centered radical for high antimalarial activity of 1,2,4-trioxanes like artemisinin” (J Med Chem, 1995) one finds IC50 data, which are given here for eleven compounds.

Structures are written as SMILES. Converted amounts (≈) assume the structure as drawn. Where only a bound is given, the exact number is not on record here.

By IC50 is commonly meant the concentration at which inhibition is half-maximal.

The experiment deals with Plasmodium falciparum. As to the kind of experiment: In vitro inhibitory activity against Chloroquine-sensitive Plasmodium falciparum NF54 as [3H]hypoxanthine incorporation. It counts as functional, organism-based.
Where [1] appears, read: Plasmodium falciparum, read-out: IC50.

Take `CO[C@H]1O[C@]2(C)OO[C@]13[C@H](CCO)CCC[C@@H]3C[C@@H]2C`: the IC50 under setting [1] came to 0.36 µg/mL (≈ 1.26 µM).

For the compound `CO[C@H]1O[C@]2(C)OO[C@]13[C@H](CCO)CCC[C@@H]3C[C@H]2C`, under setting [1], the IC50 was 0.0022 µg/mL (≈ 0.00768 µM).

As for `CO[C@H]1O[C@]2(C)OO[C@]13CCCC[C@@H]3C[C@H]2Cc1ccccc1`, the IC50 under setting [1] is 0.098 µg/mL (≈ 0.308 µM).

Regarding `CO[C@H]1O[C@@]2(C)CC[C@H]3CCC[C@@H](CCO)[C@]31OO2`, the IC50 was 0.034 µg/mL (≈ 0.125 µM). For the same compound, the IC50 under setting [1] was found to be 0.034 µg/mL (≈ 0.125 µM).

Regarding `CO[C@H]1O[C@]2(C)OO[C@]13[C@H](CCO)CCC[C@@H]3C[C@H]2C[Si](C)(C)C`, the IC50 under setting [1] was 0.086 µg/mL (≈ 0.24 µM).

On to `CO[C@H]1O[C@]2(C)OO[C@]13CCCC[C@@H]3C[C@H]2c1ccccc1`, for which the IC50 under setting [1] was 0.61 µg/mL (≈ 2 µM).

With `CO[C@H]1O[C@@]2(C)CC[C@H]3CCCC[C@]31OO2`, the IC50 under setting [1] was determined as 0.22 µg/mL (≈ 0.964 µM).

`CO[C@H]1O[C@]2(C)OO[C@]13[C@H](CCO)CCC[C@@H]3C[C@@H]2C[Si](C)(C)C`: the IC50 under setting [1] was above 1 µg/mL.

For the compound `CO[C@H]1O[C@]2(C)OO[C@]13[C@H](CCO)CCC[C@@H]3C[C@@H]2Cc1ccccc1`, under setting [1], the IC50 was found to be 0.6 µg/mL (≈ 1.66 µM).

For `CO[C@H]1O[C@]2(C)OO[C@]13[C@H](CCO)CCC[C@@H]3C[C@H]2Cc1ccccc1`, the IC50 under setting [1] was 0.003 µg/mL (≈ 0.00828 µM).

In the case of `C[C@@H]1CC[C@H]2[C@@H](C)C(=O)O[C@@H]3O[C@@]4(C)CC[C@@H]1[C@]32OO4` [ARTEMISININ], under setting [1], the IC50 stood at 0.003 µg/mL (≈ 0.0106 µM).
